Experimental data from the supplement of paper PMC9663587.

Legend:
Assay in all cases: increase in dead-cell fraction, 72 h; higher = more death;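 note: breast cancer cell lines in 384-well plates, stained with Hoechst plus LIVE/DEAD far red dye and imaged, cells above an LDR intensity threshold counted dead, Hoechst-negative corpses included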
[1] = compound: Cc1cc(Nc2ncc(Cl)c(Nc3ccccc3S(=O)(=O)C(C)C)n2)c(OC(C)C)cc1C1CCNCC1 [Ceritinib/LDK378]
[2] = compound: Cc1nc(NC(=O)N2CCC[C@H]2C(N)=O)sc1-c1ccnc(C(C)(C)C(F)(F)F)c1 [Alpelisib/BYL719]
[3] = compound: Cc1nc(Nc2ncc(C(=O)Nc3c(C)cccc3Cl)s2)cc(N2CCN(CCO)CC2)n1 [Dasatinib]
[4] = compound: Cc1nn(C)c(COc2ccc(N3CCN(S(=O)(=O)N(C)C)CC3)cc2)c1-c1cccc2c(CCCOc3cccc4ccccc34)c(C(=O)O)n(CCN3CCOCC3)c12
[5] = compound: NC(=O)Nc1cc(-c2cccc(F)c2)sc1C(=O)N[C@H]1CCCNC1 [AZD7762]
[6] = compound: O=C1NC(=O)[C@@H](c2cn3c4c(cccc24)CCC3)[C@@H]1c1c[nH]c2ccccc12 [Tivantinib/ARQ197]

AU565
increase in dead-cell fraction ([1]; 0.001 µM): -0.0009
increase in dead-cell fraction ([1]; 0.003162 µM): 0.0007
increase in dead-cell fraction ([1]; 0.01 µM): 0.001
increase in dead-cell fraction ([1]; 0.03162 µM): -0.0017
increase in dead-cell fraction ([1]; 0.1 µM): -0.004
increase in dead-cell fraction ([1]; 0.3162 µM): 0.0015
increase in dead-cell fraction ([1]; 1 µM): 0.0037
increase in dead-cell fraction ([1]; 3.162 µM): 0.0216
increase in dead-cell fraction ([2]; 0.001 µM): 0.0064
increase in dead-cell fraction ([2]; 0.003162 µM): 0.0041
increase in dead-cell fraction ([2]; 0.01 µM): 0.0062
increase in dead-cell fraction ([2]; 0.03162 µM): 0.0114
increase in dead-cell fraction ([2]; 0.1 µM): 0.0193
increase in dead-cell fraction ([2]; 0.3162 µM): 0.0259
increase in dead-cell fraction ([2]; 1 µM): 0.0468
increase in dead-cell fraction ([2]; 3.162 µM): 0.0789
increase in dead-cell fraction ([2]; 10 µM): 0.222
increase in dead-cell fraction ([3]; 0.001 µM): 0.0065
increase in dead-cell fraction ([3]; 0.003162 µM): 0.0017
increase in dead-cell fraction ([3]; 0.01 µM): 0.0035
increase in dead-cell fraction ([3]; 0.03162 µM): -0.0007
increase in dead-cell fraction ([3]; 0.1 µM): -0.003
increase in dead-cell fraction ([3]; 0.3162 µM): 0.0019
increase in dead-cell fraction ([3]; 1 µM): -0.0024
increase in dead-cell fraction ([3]; 3.162 µM): 0.0091
increase in dead-cell fraction ([3]; 10 µM): 0.0365
increase in dead-cell fraction ([4]; 0.001 µM): 0.0054
increase in dead-cell fraction ([4]; 0.003162 µM): 0.0034
increase in dead-cell fraction ([4]; 0.01 µM): 0.0061
increase in dead-cell fraction ([4]; 0.03162 µM): 0.0001
increase in dead-cell fraction ([4]; 0.1 µM): 0.0007
increase in dead-cell fraction ([4]; 0.3162 µM): -0.0037
increase in dead-cell fraction ([4]; 1 µM): 0.0003
increase in dead-cell fraction ([4]; 3.162 µM): 0.0012
increase in dead-cell fraction ([4]; 10 µM): 0.0111
increase in dead-cell fraction ([5]; 0.001 µM): 0.0024
increase in dead-cell fraction ([5]; 0.003162 µM): -0.0005
increase in dead-cell fraction ([5]; 0.01 µM): -0.0036
increase in dead-cell fraction ([5]; 0.03162 µM): -0.0044
increase in dead-cell fraction ([5]; 0.1 µM): -0.0002
increase in dead-cell fraction ([5]; 0.3162 µM): 0.0011
increase in dead-cell fraction ([5]; 1 µM): 0.0228
increase in dead-cell fraction ([5]; 3.162 µM): 0.106
increase in dead-cell fraction ([5]; 10 µM): 0.232
increase in dead-cell fraction ([6]; 0.001 µM): -0.0007
increase in dead-cell fraction ([6]; 0.003162 µM): -0.0033
increase in dead-cell fraction ([6]; 0.01 µM): -0.0012
increase in dead-cell fraction ([6]; 0.03162 µM): -0.0029
increase in dead-cell fraction ([6]; 0.1 µM): 0.0087
increase in dead-cell fraction ([6]; 0.3162 µM): 0.0601
increase in dead-cell fraction ([6]; 1 µM): 0.263
increase in dead-cell fraction ([6]; 3.162 µM): 0.306
increase in dead-cell fraction ([6]; 10 µM): 0.3
